# Where two headings read alike, the source gives them in different places. Where a SMILES comes first, the peptide text is derived from it. [ ]: non-standard residue; d: D form. The star is where a group is joined. Propanoyl(3-maleimido) = O=C1C=CC(=O)N1CCC(=O)*
# How the values were obtained:
# [1] = Pharmacokinetic studies in male Sprague-Dawley rats (plasma RIA); format: in vivo, rat
# Method: Pharmacokinetic studies were carried out on the compounds of Examples 5 and 6. Each compound was injected subcutaneously (1 μmol/kg) or intravenously (100 nmol/kg) to male Sprague-Dawley rats. Serial blood samples were taken at pre-dose, 5, 30 and 60 minutes and 2, 4, 8, 24, 48, 72 and 96 hours post-agent administration. Plasma were harvested and frozen until analysis by radioimmunoassay (RIA). A commercial polyclonal antibody raised against human native GRF (1–29) was used to detect the compounds. The assay sensitivity was 300 to 10 000 pM. Consequently, some samples had to be diluted for analysis. The results of the pharmacokinetic profiles appear in FIG. 9. As it can be seen, the compound of Example 5, i.e., the native peptide, disappears very rapidly. In fact, the compound of Example 5, whether administered subcutaneously or intrasvenously, could not be detected after 60 minutes post administration. This is consistent with results in Sprague-Dawley rats reported in the literature for GRF (1–29) and other analogues thereof, regarding the terminal half-life thereof and the percentage of bioavailability (SC/IV) (see for example Peptides, 9:207–209, and J. Endocr., 107:R5–R8.
# [2] = in vivo; cited from earlier work
molecule,measurement,setting,value
CC[C@H](C)[C@H](NC(=O)[C@H](C)NC(=O)[C@H](CC(=O)O)NC(=O)[C@@H](C)NC(=O)[C@@H](N)Cc1ccc(O)cc1)C(=O)N[C@@H](Cc1ccccc1)C(=O)N[C@H](C(=O)N[C@@H](CCC(N)=O)C(=O)N[C@@H](CO)C(=O)N[C@@H](Cc1ccc(O)cc1)C(=O)N[C@@H](CCCNC(=N)N)C(=O)N[C@@H](CCCCN)C(=O)N[C@H](C(=O)N[C@@H](CC(C)C)C(=O)N[C@@H](C)C(=O)N[C@@H](CCC(N)=O)C(=O)N[C@@H](CC(C)C)C(=O)N[C@@H](CO)C(=O)N[C@@H](C)C(=O)N[C@@H](CCCNC(=N)N)C(=O)N[C@@H](CCCCN)C(=O)N[C@@H](CC(C)C)C(=O)N[C@@H](CC(C)C)C(=O)N[C@@H](CCC(N)=O)C(=O)N[C@@H](CC(=O)O)C(=O)N[C@H](C(=O)N[C@@H](CC(C)C)C(=O)N[C@@H](CO)C(=O)N[C@@H](CCCNC(=N)N)C(=O)N[C@@H](CCCCNC(=O)CCN1C(=O)C=CC1=O)C(N)=O)[C@@H](C)CC)C(C)C)[C@@H](C)O [Example 6] (H-Y[dA]DAIFTQSYRKVLAQLSARKLLQDILSRK(Propanoyl(3-maleimido))-NH2),λ,"[1]; intravenous administration, 100 nmol/kg, male Sprague-Dawley rats",0.037
same,half-life,"[1]; rat, in vivo, sc, 1 umol/kg, subcutaneous administration, 1 μmol/kg, male Sprague-Dawley rats, read-out: Terminal half-life (converted)",1550 ± 126 min
same,time post administration at which compound remains detectable in plasma,"[1]; subcutaneous (1 μmol/kg) or intravenous (100 nmol/kg), plasma RIA, FIG. 9",≥ 96 h
same,λ,"[1]; subcutaneous administration, 1 μmol/kg, male Sprague-Dawley rats",0.027
GRF 1–29: N-terminal 1–29 fragment of growth hormone releasing factor; commercial GRF(1–29) from Polypeptide Laboratories used as comparator,half-life,[2],10 to 13 min

# Source: US7268113B2, “Long lasting growth hormone releasing factor derivatives” (ConjuChem Biotechnologies Inc., priority 2002, dated 2007)
